Measured values published in ChEMBL document CHEMBL4177763, “Development of Macrocyclic Peptidomimetics Containing Constrained α,α-Dialkylated Amino Acids with Potent and Selective Activity at Human Melanocortin Receptors” (J Med Chem, 2018).
pEC50, pIC50: −log10 of the molar value. The source made the active and inactive calls. The rule behind the calls is not given here. Bridge positions count the residues as written; N and C are the ends. Square brackets hold non-standard residues; d marks the D form. Peptide text beside a SMILES is read from it. d2Nal = N[C@H](Cc1ccc2ccccc2c1)C(=O)O; Ac6c = NC1(C(=O)O)CCCCC1; Ac5c = NC1(C(=O)O)CCCC1; Ac4c = NC1(C(=O)O)CCC1; Aib = CC(C)(N)C(=O)O

Assays:
[1] = target: T1, Melanocyte-stimulating hormone receptor (Homo sapiens, UniProt Q01726); assay: Displacement of [125I]-NDP-alpha-MSH from human MC1R expressed in HEK293 cells after 40 mins by gamma counting method; assay type: cell-based
Target sequence in this assay (Q01726 whole entry): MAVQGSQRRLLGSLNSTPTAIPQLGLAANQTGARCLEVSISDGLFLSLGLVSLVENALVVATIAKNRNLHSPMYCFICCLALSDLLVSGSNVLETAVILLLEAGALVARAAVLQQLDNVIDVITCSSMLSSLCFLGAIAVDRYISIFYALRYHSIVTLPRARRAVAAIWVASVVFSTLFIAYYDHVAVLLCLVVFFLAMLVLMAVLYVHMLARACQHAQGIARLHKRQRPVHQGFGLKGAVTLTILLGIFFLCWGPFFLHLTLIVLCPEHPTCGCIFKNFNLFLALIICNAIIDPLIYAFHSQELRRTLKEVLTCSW

[2] = target: T1, Melanocyte-stimulating hormone receptor; assay: Agonist activity at human MC1R expressed in HEK293 cells assessed as induction of intracellular cAMP accumulation measured after 3 mins; assay type: functional, cell-based
Target sequence in this assay (Q01726 whole entry): as above

Melanocortin receptor 3 [3] = target: T2, Melanocortin receptor 3 (Homo sapiens, UniProt P41968); assay: Displacement of [125I]-NDP-alpha-MSH from human MC3R expressed in HEK293 cells after 40 mins by gamma counting method; assay type: cell-based
T2 sequence (P41968 whole entry): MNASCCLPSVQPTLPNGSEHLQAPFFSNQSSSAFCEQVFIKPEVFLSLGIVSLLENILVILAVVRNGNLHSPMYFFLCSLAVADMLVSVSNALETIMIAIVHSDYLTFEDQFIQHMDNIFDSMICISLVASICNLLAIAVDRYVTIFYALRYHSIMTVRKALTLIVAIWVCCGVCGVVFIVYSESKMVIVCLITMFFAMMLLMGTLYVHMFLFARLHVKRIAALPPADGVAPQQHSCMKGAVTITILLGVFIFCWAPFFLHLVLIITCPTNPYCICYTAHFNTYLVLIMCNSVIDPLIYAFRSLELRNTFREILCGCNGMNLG

Melanocortin receptor 3 [4] = target: T2, Melanocortin receptor 3; assay: Agonist activity at human MC3R expressed in HEK293 cells assessed as induction of intracellular cAMP accumulation after 3 mins; assay type: functional, cell-based; details: for pEC50: read-out: EC50; for EC50: hek293
Melanocortin receptor 3 [5] = target: T2, Melanocortin receptor 3; assay: Agonist activity at human MC3R expressed in HEK293 cells assessed as induction of intracellular cAMP accumulation at 10 uM after 3 mins relative to MT-2; assay type: functional, cell-based
Melanocortin receptor 4 [6] = target: T3, Melanocortin receptor 4 (Homo sapiens, UniProt P32245); assay: Displacement of [125I]-NDP-alpha-MSH from human MC4R expressed in HEK293 cells after 40 mins by gamma counting method; assay type: cell-based
T3 sequence (P32245 whole entry): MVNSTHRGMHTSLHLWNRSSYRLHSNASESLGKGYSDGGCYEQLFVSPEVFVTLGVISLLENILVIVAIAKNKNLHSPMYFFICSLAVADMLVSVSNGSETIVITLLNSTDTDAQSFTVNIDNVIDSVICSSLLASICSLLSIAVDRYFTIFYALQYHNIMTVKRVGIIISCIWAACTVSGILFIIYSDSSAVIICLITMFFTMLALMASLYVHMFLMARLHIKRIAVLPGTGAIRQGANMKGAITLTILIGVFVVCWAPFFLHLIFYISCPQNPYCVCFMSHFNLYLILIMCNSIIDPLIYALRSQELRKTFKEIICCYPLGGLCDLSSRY

Melanocortin receptor 4 [7] = target: T3, Melanocortin receptor 4; assay: Agonist activity at human MC4R expressed in HEK293 cells assessed as induction of intracellular cAMP accumulation after 3 mins; assay type: functional, cell-based; details: for pEC50: read-out: EC50; for EC50: hek293
Melanocortin receptor 4 [8] = target: T3, Melanocortin receptor 4; assay: Agonist activity at human MC4R expressed in HEK293 cells assessed as induction of intracellular cAMP accumulation at 10 uM after 3 mins relative to MT-2; assay type: functional, cell-based
Melanocortin receptor 5 [9] = target: T4, Melanocortin receptor 5 (Homo sapiens, UniProt P33032); assay: Displacement of [125I]-NDP-alpha-MSH from human MC5R expressed in HEK293 cells after 40 mins by gamma counting method; assay type: cell-based
T4 sequence (P33032 whole entry): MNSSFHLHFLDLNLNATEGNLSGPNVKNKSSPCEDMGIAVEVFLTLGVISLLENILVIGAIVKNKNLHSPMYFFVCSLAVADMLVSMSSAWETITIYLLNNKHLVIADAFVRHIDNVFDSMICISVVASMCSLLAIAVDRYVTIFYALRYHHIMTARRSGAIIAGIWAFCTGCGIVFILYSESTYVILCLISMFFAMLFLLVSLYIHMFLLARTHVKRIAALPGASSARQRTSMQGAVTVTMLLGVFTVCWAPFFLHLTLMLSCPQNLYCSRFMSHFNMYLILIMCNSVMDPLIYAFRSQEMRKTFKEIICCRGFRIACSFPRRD

Melanocortin receptor 5 [10] = target: T4, Melanocortin receptor 5; assay: Agonist activity at human MC5R expressed in HEK293 cells assessed as induction of intracellular cAMP accumulation after 3 mins; assay type: functional, cell-based; details: for pEC50: read-out: EC50; for EC50: hek293
Melanocortin receptor 5 [11] = target: T4, Melanocortin receptor 5; assay: Agonist activity at human MC5R expressed in HEK293 cells assessed as induction of intracellular cAMP accumulation at 10 uM after 3 mins relative to MT-2; assay type: functional, cell-based
[12] = target: T1, Melanocyte-stimulating hormone receptor; assay: Agonist activity at human MC1R expressed in HEK293 cells assessed as induction of intracellular cAMP accumulation at 10 uM measured after 3 mins relative to MT-2; assay type: functional, cell-based
Target sequence in this assay (Q01726 whole entry, looked up): as the sequence (Q01726 whole entry) above

Homo sapiens [13] = species: Homo sapiens; assay: Selectivity ratio of IC50 for human MC1R to IC50 for human MC3R
Homo sapiens [14] = species: Homo sapiens; assay: Selectivity ratio of IC50 for human MC5R to IC50 for human MC3R
Melanocortin receptor 5 [15] = target: T4, Melanocortin receptor 5; assay: Displacement of [125I]-NDP-alpha-MSH from human MC5R expressed in HEK293 cells at 10 uM after 40 mins by gamma counting method; assay type: cell-based

| pIC50 [1] | pEC50 [2] | pIC50 (Melanocortin receptor 3 [3]) | pEC50 (Melanocortin receptor 3 [4]) | max activation (Melanocortin receptor 3 [5]) | pIC50 (Melanocortin receptor 4 [6]) | pEC50 (Melanocortin receptor 4 [7]) | max activation (Melanocortin receptor 4 [8]) | pIC50 (Melanocortin receptor 5 [9]) | pEC50 (Melanocortin receptor 5 [10]) | max activation (Melanocortin receptor 5 [11]) | max activation [12] | EC50 (Melanocortin receptor 5 [10]) | EC50 (Melanocortin receptor 3 [4]) | EC50 (Melanocortin receptor 4 [7]) | Ratio IC50 (Homo sapiens [13]) | Ratio IC50 (Homo sapiens [14]) | Activity (Melanocortin receptor 5 [15]) | Compound |
| --- | --- | --- | --- | --- | --- | --- | --- | --- | --- | --- | --- | --- | --- | --- | --- | --- | --- | --- |
| 7.00 | 7.24 | 7.13 | 8.39 | 100% | < 6.00 | 6.92 | 100% | 6.20 | 8.72 | 100% | 100% | – | – | – | – | – | – | N=C(N)NCCC[C@@H]1NC(=O)[C@@H](Cc2ccccc2)NC(=O)[C@H](Cc2c[nH]cn2)NC(=O)C2(CCCCC2)NC(=O)CC[C@@H](C(N)=O)NC(=O)[C@H](Cc2c[nH]c3ccccc23)NC1=O |
| 6.85 | 7.80 | 8.41 | 7.12 | 60% | 7.09 | 8.49 | 67% | < 6.00 | 6.77 | 100% | 100% | – | – | – | – | – | – | N=C(N)NCCC[C@@H]1NC(=O)[C@@H](Cc2ccc3ccccc3c2)NC(=O)[C@H](Cc2c[nH]cn2)NC(=O)C2(CCCCC2)NC(=O)C[C@@H](C(N)=O)NC(=O)[C@H](Cc2c[nH]c3ccccc23)NC1=O |
| 6.95 | 7.32 | 8.29 | 8.49 | 50% | 6.49 | 6.57 | 70% | < 6.00 | 6.25 | 100% | 100% | – | – | – | – | – | – | N=C(N)NCCC[C@@H]1NC(=O)[C@@H](Cc2ccc3ccccc3c2)NC(=O)[C@H](Cc2c[nH]cn2)NC(=O)C2(CCC2)NC(=O)C[C@@H](C(N)=O)NC(=O)[C@H](Cc2c[nH]c3ccccc23)NC1=O |
| 6.54 | 7.85 | 7.80 | 8.72 | 42% | 7.14 | 6.96 | 67% | 6.80 | 7.02 | 100% | 100% | – | – | – | – | – | – | N=C(N)NCCC[C@@H]1NC(=O)[C@@H](Cc2ccc3ccccc3c2)NC(=O)[C@H](Cc2c[nH]cn2)NC(=O)C2(CCCC2)NC(=O)C[C@@H](C(N)=O)NC(=O)[C@H](Cc2c[nH]c3ccccc23)NC1=O |
| < 6.00 | 7.22 | < 6.00 | 6.56 | 100% | < 6.00 | 6.14 | 43% | < 6.00 | – | 0% | 100% | Not Active | – | – | – | – | – | N=C(N)NCCC[C@@H]1NC(=O)[C@@H](Cc2ccccc2)NC(=O)[C@H](Cc2c[nH]cn2)NC(=O)C2(CCC2)NC(=O)C[C@@H](C(N)=O)NC(=O)[C@H](Cc2c[nH]c3ccccc23)NC1=O |
| – | – | – | – | – | – | – | – | – | – | – | – | Not Active | Not Active | Not Active | – | – | – | N=C(N)NCCC[C@@H]1NC(=O)[C@@H](Cc2ccc3ccccc3c2)NC(=O)[C@H](Cc2c[nH]cn2)NC(=O)C2(CCC2)NC(=O)CC[C@@H](C(N)=O)NC(=O)[C@H](Cc2c[nH]c3ccccc23)NC1=O ([Ac4c]H[d2Nal]RWE-NH2; lactam N-6) |
| 7.26 | 7.60 | 7.26 | – | 100% | < 6.00 | 6.82 | 75% | 6.42 | 8.70 | 100% | 100% | – | – | – | 7 | 1 | – | N=C(N)NCCC[C@@H]1NC(=O)[C@@H](Cc2ccccc2)NC(=O)[C@H](Cc2c[nH]cn2)NC(=O)C2(CCC2)NC(=O)CC[C@@H](C(N)=O)NC(=O)[C@H](Cc2c[nH]c3ccccc23)NC1=O ([Ac4c]H[dF]RWE-NH2; lactam N-6) |
| 7.37 | 6.97 | – | – | 82% | 7.00 | 6.89 | 74% | < 6.00 | – | 0% | 100% | Not Active | – | – | – | – | – | N=C(N)NCCC[C@@H]1NC(=O)[C@@H](Cc2ccc3ccccc3c2)NC(=O)[C@H](Cc2c[nH]cn2)NC(=O)C2(CCCC2)NC(=O)CC[C@@H](C(N)=O)NC(=O)[C@H](Cc2c[nH]c3ccccc23)NC1=O ([Ac5c]H[d2Nal]RWE-NH2; lactam N-6) |
| – | – | – | – | – | – | – | – | – | – | – | – | Not Active | – | – | – | – | inactive | N=C(N)NCCC[C@@H]1NC(=O)[C@@H](Cc2ccccc2)NC(=O)[C@H](Cc2c[nH]cn2)NC(=O)C2(CCCC2)NC(=O)C[C@@H](C(N)=O)NC(=O)[C@H](Cc2c[nH]c3ccccc23)NC1=O ([Ac5c]H[dF]RWD-NH2; lactam N-6) |
| 7.03 | – | 7.23 | – | 100% | < 6.00 | 6.00 | 100% | – | – | 0% | 100% | Not Active | – | – | – | – | inactive | N=C(N)NCCC[C@@H]1NC(=O)[C@@H](Cc2ccccc2)NC(=O)[C@H](Cc2c[nH]cn2)NC(=O)C2(CCCC2)NC(=O)CC[C@@H](C(N)=O)NC(=O)[C@H](Cc2c[nH]c3ccccc23)NC1=O ([Ac5c]H[dF]RWE-NH2; lactam N-6) |
| – | – | – | – | – | – | – | – | – | – | – | – | Not Active | Not Active | Not Active | – | – | – | N=C(N)NCCC[C@@H]1NC(=O)[C@@H](Cc2ccc3ccccc3c2)NC(=O)[C@H](Cc2c[nH]cn2)NC(=O)C2(CCCCC2)NC(=O)CC[C@@H](C(N)=O)NC(=O)[C@H](Cc2c[nH]c3ccccc23)NC1=O ([Ac6c]H[d2Nal]RWE-NH2; lactam N-6) |
| – | – | – | – | – | – | – | – | – | – | – | – | Not Active | – | – | – | – | – | N=C(N)NCCC[C@@H]1NC(=O)[C@@H](Cc2ccccc2)NC(=O)[C@H](Cc2c[nH]cn2)NC(=O)C2(CCCCC2)NC(=O)C[C@@H](C(N)=O)NC(=O)[C@H](Cc2c[nH]c3ccccc23)NC1=O ([Ac6c]H[dF]RWD-NH2; lactam N-6) |
| 6.74 | 7.17 | – | 7.14 | 83% | 7.36 | 8.17 | 100% | 6.78 | 7.74 | 24% | 100% | – | – | – | – | – | – | CC1(C)NC(=O)C[C@@H](C(N)=O)NC(=O)[C@H](Cc2c[nH]c3ccccc23)NC(=O)[C@H](CCCNC(=N)N)NC(=O)[C@@H](Cc2ccc3ccccc3c2)NC(=O)[C@H](Cc2c[nH]cn2)NC1=O ([Aib]H[d2Nal]RWD-NH2; lactam N-6) |
| – | – | – | – | – | – | – | – | – | – | – | – | Not Active | – | – | – | – | – | CC1(C)NC(=O)CC[C@@H](C(N)=O)NC(=O)[C@H](Cc2c[nH]c3ccccc23)NC(=O)[C@H](CCCNC(=N)N)NC(=O)[C@@H](Cc2ccc3ccccc3c2)NC(=O)[C@H](Cc2c[nH]cn2)NC1=O ([Aib]H[d2Nal]RWE-NH2; lactam N-6) |
| 6.22 | 7.06 | – | 7.12 | 100% | 8.28 | 8.17 | 100% | < 6.00 | 6.85 | 100% | 100% | – | – | – | – | – | – | CC1(C)NC(=O)C[C@@H](C(N)=O)NC(=O)[C@H](Cc2c[nH]c3ccccc23)NC(=O)[C@H](CCCNC(=N)N)NC(=O)[C@@H](Cc2ccccc2)NC(=O)[C@H](Cc2c[nH]cn2)NC1=O ([Aib]H[dF]RWD-NH2; lactam N-6) |
